Reference: ChEMBL document CHEMBL6121036, “Evaluation of Cereblon-Directing Warheads for the Development of Orally Bioavailable PROTACs” (J Med Chem, 2025)
Converted amounts (≈) assume the structure as drawn. Each block holds one compound with its values, some of them ahead of it. The source made the active and inactive calls. No cut-off for these calls is given here.

Assays:
[1] = Effect on BRD4 level in human MV4-11 cells assessed as fold change at 100 nM measured after 4 hrs; type: functional
[2] = Effect on ZFP36L2 level in human MV4-11 cells assessed as fold change at 100 nM measured after 4 hrs; type: functional
[3] = Effect on PLAU level in human MV4-11 cells assessed as fold change at 100 nM measured after 4 hrs; type: functional
[4] = Downregulation of BRD3 protein level in human MV4-11 cells at 100 nM incubated for 4 hrs relative to control; type: functional
[5] = Downregulation of BRD4 protein level in human MV4-11 cells at 100 nM incubated for 4 hrs relative to control; type: functional
[6] = biological target: T1, Protein cereblon/Bromodomain-containing protein 2 (Homo sapiens) (UniProt P25440+Q96SW2); assay: PROTAC activity at CRBN/Hibit-tagged CRISPR BRD2 (unknown origin) expressed in HEK293 cells coexpressing LgBiT assessed as degradation of BRD2 measured after 10 to 14 hrs by […] glo-max assay; type: cell-based; settings: time 10-14 hrs
[7] = Cmax in female CD1 mouse at 10 mg/kg, po measured upto 24 hrs by LC-MS/MS analysis; type: ADME, organism-based; settings: in vivo
[8] = Effect on CCND3 level in human MV4-11 cells assessed as fold change at 100 nM measured after 4 hrs; type: functional
[9] = biological target: T2, Protein cereblon/Bromodomain-containing protein 4 (Homo sapiens, UniProt O60885+Q96SW2); assay: PROTAC activity at CRBN/Hibit-tagged CRISPR BRD4 (unknown origin) expressed in HEK293 cells co-expressing LgBiT assessed as degradation of BRD4 measured after 18 to 24 hrs by […] glo-max assay; type: cell-based; settings: time 18-24 hrs
[10] = biological target: T1, Protein cereblon/Bromodomain-containing protein 2 (Homo sapiens); assay: PROTAC activity at CRBN/Hibit-tagged CRISPR BRD2 (unknown origin) expressed in HEK293 cells coexpressing LgBiT assessed as degradation of BRD2 by […] glo-max assay; type: cell-based
[11] = Downregulation of BRD2 protein level in human MV4-11 cells at 100 nM incubated for 4 hrs relative to control; type: functional
[12] = Kinetic aqueous solubility of the compound at pH 7.4; type: physicochemical; settings: read-out: Kinetic_solubility
[13] = Effect on NSA2 level in human MV4-11 cells assessed as fold change at 100 nM measured after 4 hrs; type: functional
[14] = biological target: T3, Protein cereblon/Bromodomain-containing protein 3 (Homo sapiens) (UniProt Q15059+Q96SW2); assay: PROTAC activity at CRBN/Hibit-tagged CRISPR BRD3 (unknown origin) expressed in HEK293 cells co-expressing LgBiT assessed as degradation of BRD3 measured after 13 to 16 hrs by […] glo-max assay; type: cell-based; settings: time 13-16 hrs
[15] = Effect on BRD3 level in human MV4-11 cells assessed as fold change at 100 nM measured after 4 hrs; type: functional
[16] = Effect on PLK1 level in human MV4-11 cells assessed as fold change at 100 nM measured after 4 hrs; type: functional
[17] = Effect on RNF166 level in human MV4-11 cells assessed as fold change at 100 nM measured after 4 hrs; type: functional
MV4-11 [18] = assay: Cytotoxicity against human MV4-11 cells assessed as reduction in cell viability incubated for 72 hrs by cell-titer glo assay; type: functional, cell-based; settings: MV4-11, 72 h
[19] = biological target: T1, Protein cereblon/Bromodomain-containing protein 2 (Homo sapiens); assay: PROTAC activity at CRBN/Hibit-tagged CRISPR BRD2 (unknown origin) expressed in HEK293 cells coexpressing LgBiT assessed as degradation of BRD2 by […] glo-max assay relative to control; type: cell-based
[20] = biological target: T2, Protein cereblon/Bromodomain-containing protein 4; assay: PROTAC activity at CRBN/Hibit-tagged CRISPR BRD4 (unknown origin) expressed in HEK293 cells co-expressing LgBiT assessed as degradation of BRD4 by […] glo-max assay; type: cell-based
[21] = biological target: T3, Protein cereblon/Bromodomain-containing protein 3 (Homo sapiens); assay: PROTAC activity at CRBN/Hibit-tagged CRISPR BRD3 (unknown origin) expressed in HEK293 cells co-expressing LgBiT assessed as degradation of BRD3 by […] glo-max assay relative to control; type: cell-based
[22] = biological target: T2, Protein cereblon/Bromodomain-containing protein 4; assay: PROTAC activity at CRBN/Hibit-tagged BRD4 (unknown origin) expressed in HEK293 cells co-expressing LgBiT assessed as degradation rate incubated for 24 hrs by […] glo-max assay; type: cell-based
[23] = Effect on CDC42EP3 level in human MV4-11 cells assessed as fold change at 100 nM measured after 4 hrs; type: functional
[24] = Metabolic stability in mouse liver microsomes assessed as half life; type: ADME, Microsome; settings: liver microsomes
[25] = Effect on MYC level in human MV4-11 cells assessed as fold change at 100 nM measured after 4 hrs; type: functional
[26] = Effect on AURKA level in human MV4-11 cells assessed as fold change at 100 nM measured after 4 hrs; type: functional
[27] = biological target: T2, Protein cereblon/Bromodomain-containing protein 4; assay: PROTAC activity at CRBN/Hibit-tagged BRD4 (unknown origin) expressed in HEK293 cells co-expressing LgBiT assessed as degradation of BRD4 incubated for 24 hrs by […] glo-max assay relative to control; type: cell-based
[28] = biological target: T4, Protein cereblon/Bromodomain-containing protein 4/DNA damage-binding protein 1 (Homo sapiens) (UniProt O60885+Q96SW2+Q16531); assay: Binding affinity to his-tagged CRBN/DDB1/GST-tagged BRD4 (49 to 170 residues)(unknown origin) assessed as ternary complex formation (AUC) incubated for 1 hr by luminescence based Alphascreen assay; type: protein assay
[29] = Effect on TP53 level in human MV4-11 cells assessed as fold change at 100 nM measured after 4 hrs; type: functional
[30] = Permeability in MDCK-II cells incubated for 1 hr by UPLC/MS/UV analysis; type: ADME, cell-based, Canis lupus familiaris; settings: dog, read-out: permeability
[31] = Effect on ZBTB21 level in human MV4-11 cells assessed as fold change at 100 nM measured after 4 hrs; type: functional
[32] = Effect on BRD2 level in human MV4-11 cells assessed as fold change at 100 nM measured after 4 hrs; type: functional
[33] = biological target: T3, Protein cereblon/Bromodomain-containing protein 3 (Homo sapiens); assay: PROTAC activity at CRBN/Hibit-tagged CRISPR BRD3 (unknown origin) expressed in HEK293 cells co-expressing LgBiT assessed as degradation of BRD3 by […] glo-max assay; type: cell-based
[34] = Effect on CCNF level in human MV4-11 cells assessed as fold change at 100 nM measured after 4 hrs; type: functional
[35] = biological target: Protein cereblon (Homo sapiens) (UniProt Q96SW2); assay: Binding affinity to CRBN (unknown origin)
HD-MB03 = assay: Cytotoxicity against human HD-MB03 cells assessed as reduction in cell viability incubated for 72 hrs by cell-titer glo assay; type: functional, cell-based; settings: HD-MB03, 72 h
[36] = Effect on FYTTD1 level in human MV4-11 cells assessed as fold change at 100 nM measured after 4 hrs; type: functional
[37] = Stability in mouse plasma assessed as half life by UPLC-MS/MS analysis; type: ADME, cell-free
[38] = Effect on FGL2 level in human MV4-11 cells assessed as fold change at 100 nM measured after 4 hrs; type: functional
HEK293 = assay: Cytotoxicity against HEK293 cells expressing LgBiT fused HiBiT-BRD2 measured after 24 hrs by cell titer-glo assay; type: toxicity, cell-based; settings: human, hek293, 24 h
[39] = AUC last in female CD1 mouse at 10 mg/kg, po measured upto 24 hrs by LC-MS/MS analysis; type: ADME, organism-based; settings: in vivo
[40] = biological target: T2, Protein cereblon/Bromodomain-containing protein 4; assay: PROTAC activity at CRBN/Hibit-tagged CRISPR BRD4 (unknown origin) expressed in HEK293 cells co-expressing LgBiT assessed as degradation of BRD4 by […] glo-max assay relative to control; type: cell-based
[41] = Effect on MCL1 level in human MV4-11 cells assessed as fold change at 100 nM measured after 4 hrs; type: functional
[42] = Effect on NOP53 level in human MV4-11 cells assessed as fold change at 100 nM measured after 4 hrs; type: functional
[43] = biological target: T2, Protein cereblon/Bromodomain-containing protein 4; assay: PROTAC activity at CRBN/Hibit-tagged BRD4 (unknown origin) expressed in HEK293 cells co-expressing LgBiT assessed as degradation of BRD4 incubated for 24 hrs by […] glo-max assay; type: cell-based
MV4-11 [44] = assay: Upregulation of MIER1 level in human MV4-11 cells at 100 nM incubated for 30 mins; type: functional, cell-based
MV4-11 [45] = assay: Upregulation of ZBTB21 level in human MV4-11 cells at 100 nM incubated for 30 mins; type: functional, cell-based
[46] = biological target: T4, Protein cereblon/Bromodomain-containing protein 4/DNA damage-binding protein 1 (Homo sapiens); assay: Binding affinity to his-tagged CRBN/DDB1/GST-tagged BRD4 (49 to 170 residues)(unknown origin) assessed as ternary complex formation by measuring AUC incubated for 1 hr by luminescence based Alphascreen assay; type: protein assay
[47] = Half life in mouse at 50 mg/kg, ip; type: ADME, organism-based; settings: in vivo

Activity [6]: Active | Cmax [7]: 1160 ng/mL | Activity [9]: Active | Activity [10]: Active | solubility kinetic [12]: 10.5 µM (≈ 8.64 µg/mL) | Activity [14]: Active | Activity [19]: > 95% | Activity [20]: Active | Activity [21]: > 95% | Activity [22]: 0.204 fRLU/hr | half-life [24]: 9.6 min | Emax [27]: 95.5% | Papp at 1 h [30]: 0.79 ×10⁻⁶ cm/s | Activity [33]: Active | Activity [35]: Active | half-life [37]: 1070 min | AUC(0-t) at 24 h [39]: 3320 ng·h/mL | Activity [40]: > 90% | DC50 [43]: 1.08 nM
SMILES: Cc1sc2c(c1C)C(c1ccc(Cl)cc1)=N[C@@H](CC(=O)N1CCC(CN3CCN(c4ccc5c(c4)C(=O)N(C4CCC(=O)NC4=O)C5=O)CC3)CC1)c1nnc(C)n1-2 (stereo partly drawn)
fold change (FC) [1]: -4.11 | fold change (FC) [2]: -1.07 | fold change (FC) [3]: -1.1 | Activity [4]: 90% | Activity [5]: 90% | fold change (FC) [8]: -0.9 | Activity [11]: 90% | fold change (FC) [13]: -1.1 | fold change (FC) [15]: -4.09 | fold change (FC) [16]: -0.79 | fold change (FC) [17]: -1.26 | IC50 (MV4-11 [18]): 0.82 nM | fold change (FC) [23]: -1.24 | fold change (FC) [25]: -1.29 | fold change (FC) [26]: -0.95 | Activity [28]: Active | fold change (FC) [29]: 1.91 | fold change (FC) [31]: -0.06 | fold change (FC) [32]: -3.3 | fold change (FC) [34]: -1.64 | IC50 (HD-MB03): 9.29 nM | fold change (FC) [36]: -1.73 | fold change (FC) [38]: -1 | Activity (HEK293): Non-toxic | fold change (FC) [41]: -1.17 | fold change (FC) [42]: -0.88

Activity [6]: Active | Cmax [7]: 70 ng/mL | Activity [9]: Active | Activity [10]: Active | solubility kinetic [12]: 14.8 µM (≈ 12 µg/mL) | Activity [14]: Active | Activity [19]: > 95% | Activity [20]: Active | Activity [21]: > 95% | Activity [22]: 0.395 fRLU/hr | Emax [27]: 94% | Papp at 1 h [30]: 1.2 ×10⁻⁶ cm/s | Activity [33]: Active | Activity [35]: Active | half-life [37]: 822 min | AUC(0-t) at 24 h [39]: 181 ng·h/mL | Activity [40]: > 90% | DC50 [43]: 0.25 nM
SMILES: Cc1sc2c(c1C)C(c1ccc(Cl)cc1)=N[C@@H](CC(=O)N1CCC(CN3CCN(c4ccc5c(c4)oc(=O)n5C4CCC(=O)NC4=O)CC3)CC1)c1nnc(C)n1-2 (stereo partly drawn)
fold change (FC) [1]: -3.75 | fold change (FC) [2]: -1.14 | fold change (FC) [3]: -1.13 | Activity [4]: 90% | Activity [5]: 90% | fold change (FC) [8]: -1.03 | Activity [11]: 90% | fold change (FC) [13]: -1.09 | fold change (FC) [15]: -4.05 | fold change (FC) [16]: -0.8 | Activity (MV4-11 [44]): Active | fold change (FC) [17]: -0.64 | IC50 (MV4-11 [18]): 0.04 nM | fold change (FC) [23]: -1.17 | fold change (FC) [25]: -2.38 | fold change (FC) [26]: -0.94 | Activity [28]: Active | fold change (FC) [29]: 1.94 | fold change (FC) [31]: -1.77 | fold change (FC) [32]: -3.2 | fold change (FC) [34]: -1.74 | IC50 (HD-MB03): 0.38 nM | fold change (FC) [36]: -1.64 | Activity (MV4-11 [45]): Active | fold change (FC) [38]: -0.81 | Activity (HEK293): Non-toxic | fold change (FC) [41]: -1.14 | fold change (FC) [42]: -0.92

solubility kinetic [12]: 24.4 µM (≈ 17.8 µg/mL) | half-life [24]: 2.4 min | Emax [27]: 75.7% | half-life [47]: 25.8 min | DC50 [43]: 25 nM
SMILES: Cc1sc2c(c1C)C(c1ccc(Cl)cc1)=N[C@@H](CC(=O)NCCCCCNC(=O)COc1ccc(C3CCC(=O)NC3=O)cc1)c1nnc(C)n1-2 (stereo partly drawn)
AUC [46]: 298000 | Activity (HEK293): Non-toxic
